CC1=NN(c2ccccc2)C(=O)C1
solubility (mole fraction)
Settings | 283.15 K | 288.15 K | 293.15 K | 298.15 K | 303.15 K | 313.15 K | 323.15 K
in 1,4-dioxane | – | 0.027 | 0.0341 | – | 0.0483 | 0.0669 | 0.1
in acetone | 0.0167 | – | 0.0254 | – | 0.0371 | 0.0563 | 0.108
in acetonitrile | 0.00788 | – | 0.0126 | – | 0.019 | 0.0284 | 0.0438
in dichloromethane | 0.0447 | 0.0499 | 0.0582 | 0.0688 | 0.0788 | – | –
in ethanol | 0.0176 | – | 0.024 | – | 0.0339 | 0.0457 | 0.0597
in ethyl acetate | 0.0131 | – | 0.0159 | – | 0.0198 | 0.0335 | 0.0545
in isobutanol | 0.0153 | – | 0.0218 | – | 0.0288 | 0.0398 | 0.0573
in isopropanol | 0.0135 | – | 0.0186 | – | 0.0268 | 0.0356 | 0.0514
in methanol | 0.0194 | – | 0.0278 | – | 0.0402 | 0.0562 | 0.0833
in n-butanol | 0.0194 | – | 0.0272 | – | 0.0372 | 0.0504 | 0.0703
in n-pentanol | 0.0245 | – | 0.0285 | – | 0.0381 | 0.05 | 0.069
in n-propanol | 0.0149 | – | 0.025 | – | 0.0344 | 0.0494 | 0.0689
in sec-butanol | 0.0156 | – | 0.0218 | – | 0.0296 | 0.0404 | 0.0579
in water | 0.000153 | – | 0.000163 | – | 0.000174 | 0.000189 | 0.00021
